Laboratory results taken from PMC9098178, “SAR of Novel 3-Arylisoquinolinones: meta-Substitution on the Aryl Ring Dramatically Enhances Antiproliferative Activity through Binding to Microtubules” (Journal of Medicinal Chemistry, 2022).
Read-outs that look alike come from different tables or passages of the source. Blank lines part the entries; values can stand above or below the molecule they belong to.

What was measured:
[1] = set-up: method as in PMID 21127197; conditions: after compound washout; cited from earlier work
[2] = tested on: MCF-7; experiment: SRB antiproliferative assay, MCF-7; format: cell-based, human
Protocol: Initially, the human breast cancer cell line MCF-7 was used in a prescreen analysis of the anticancer activity of 3-arylisoquinolinones. The cells were treated with serial concentrations of compounds 2–8 for 96 h prior to the assessment of proliferation using the sulforhodamine B (SRB) assay. For each compound, the concentration required to inhibit cell growth by 50% compared to that of the untreated control cells (IC50) was determined (Table 1).
(§1) All cell lines used in the study were human-derived and purchased from ATCC (Manassas, USA). Breast adenocarcinoma MCF-7 and MDA-MB-231 cell lines were cultured in DMEM. Hepatocellular carcinoma HepG2 and SNU423 cell lines were grown in MEME combined with 1% (v/v) nonessential amino acids and RPMI supplemented with 2 mM glutamine, respectively. Lung adenocarcinoma A549 and colorectal carcinoma HCT116 cells were grown in RPMI (+2 mM glutamine). All previous media were further supplemented with 10% heat-inactivated fetal bovine serum. The immortalized, normal liver THLE-3 cells were grown in BEGM (Lonza, Cat# CC-3170) onto precoated vessels according to ATCC’s instructions. Human umbilical vein endothelial cells (HUVECs) were cultured in EGM-2 (Lonza, Cat# CC-3162). All of the cells were maintained at 37 °C and 5% CO2 in a humidified incubator.
(§2) Screening of the antiproliferative activity of 3-arylisoquinolinones was performed using the SRB assay as previously described.[56] Exponentially growing HepG2, SNU423, MDA-MB-231, MCF-7, A549, HCT116, THLE-3, and HUVECs were seeded in 96-well plates at densities of 3000, 2000, 1500, 2500, 1000, 1000, 4000, and 4000 cells/well, respectively. These densities were experimentally selected so that the DMSO-treated cells (control) were approximately 80–90% confluent at the assay’s endpoint, and their optical density (OD) values fell within the assay’s linear range. After overnight incubation, the cells were treated with a range of concentrations of the respective compounds for 96 h, 24 h followed by 72 h compound-free incubation or 24 h (for HUVECs only). After treatment, cell monolayers were fixed with 10% (w/v) trichloroacetic acid for 1 h at 4 °C, washed, and dried. Then, the cells were exposed to 0.4% (w/v) SRB dye (prepared in 1% (v/v) acetic acid; Botium, Cat# 80100) for 15 min followed by several 1% acetic acid washing and then drying. Finally, the cellular protein-bound SRB was thoroughly dissolved in 10 mM Tris base, and the OD values were read at 510 nm using a plate reader (μQuant Microplate Spectrophotometer, Biotek, U.K.) coupled with Gen5 software (BioTek, U.K.). Compound-induced changes in cell growth were inferred from changes in OD values. Cell growth was calculated using the following formula: cell growth (%) = (ODtest/ODcontrol) × 100.

[3] = tested on: panel of 59 cancer cell lines; experiment: NCI one-dose screen; format: cell-based; conditions: 10 µM, 48 h, SRB
Protocol: (§3) In light of this substantial change in activity between the meta and para compounds, a more comprehensive analysis of the antiproliferative activity was performed for the meta-/para-3-arylisoquinolinone pairs 2 and 3, 4, and 5, as well as 6. A panel of breast (MDA-MB-231), liver (HepG2, SNU423), lung (A549), and colon (HCT116) cancer cell lines were treated with the five 3-arylisoquinolinone analogs for 96 h followed by the SRB assay. The dose–response curves (including those for MCF-7) are presented in Figure S22, and their relevant IC50 values are listed in Table 1. […] The differential activity between meta- and para-3-arylisoquinolinones was reproduced in the National Cancer Institute (NCI) one-dose screen using a panel of 59 cancer cell lines (Figure S23).
Figure S23. NCI One-Dose Mean graphs for 3-arylisoquinolinones 4, 5 […]
In NCI one-dose screen, the 59 cell lines (classified into 9 groups) were exposed to 4, 5 and 7 at a single dose of 10 µM for 48 h followed by SRB assay. The one-dose data were reported as a mean graph of the growth percentage of treated cells, as relative to the cell number of both the no-drug control and the zero time (before adding the test agent). Values between 0 and 100 indicate growth inhibition, whereas values less than 0 indicate lethality. For instance, a value of 40 means 60% growth inhibition; 0, no growth throughout the experiment; -40, 40% lethality; and - 100, all cells are dead.1
A) One-dose mean graph for 3-arylisoquinolinone 4 (NSC number 795055)

[4] = tested on: HepG2; experiment: SRB antiproliferative assay, HepG2; format: cell-based, human
Protocol: as §3, §1, §2

[5] = tested on: HepG2 cells; experiment: Clonogenic assay; format: cell-based, human; conditions: 14 days; for colony formation: 0.5 or 1 μM
Protocol: HepG2 cells were treated with varying concentrations of 2–6 added once and kept for 14 days before counting colonies and calculating surviving fraction (Figure 2).
The ability of potential anticancer agents to prevent unlimited cell division and induce reproductive cell death was assessed using clonogenic assay as previously described.[57] In brief, HepG2 cells were seeded into six-well plates at a density of 1000 single cells/well and incubated for 10–12 h to adhere. The cells were then treated with DMSO (control) or a range of concentrations of 2–6 for 14 days. Afterward, the produced colonies were washed with phosphate-buffered saline (PBS), fixed with 70% ethanol for 20 min, and stained with 0.5% (w/v) methylene blue (prepared in 70% methanol). Following washing with water and drying, colonies (≥50 cells) were manually counted. The colony-forming efficiency (CFE) of cells was calculated by dividing the number of colonies formed by the number of cells seeded for each condition. The surviving fraction was determined by dividing the CFE of the treated cells by CFE of the control cells. A survival curve was generated by plotting the log of drug concentrations versus surviving fraction.

[6] = tested on: HCT116; experiment: SRB antiproliferative assay, HCT116; format: cell-based, human
Protocol: as §3, §1, §2

[7] = tested on: A549; experiment: SRB antiproliferative assay, A549; format: cell-based, human
Protocol: as §3, §1, §2

[8] = tested on: THLE-3; experiment: SRB antiproliferative assay, normal liver cell line THLE-3; format: cell-based, human; conditions: 24 h +drug/72 h –drug treatment, read-out: mean IC50 ± SEM, THLE-3
Text: In the preceding experiments, the cells were continuously exposed to the compounds prior to scoring for the antiproliferative/cytotoxic effects. […] The meta compounds were also examined for the presence of differential antiproliferative activity against cancer cells over the normal liver cell line THLE-3. […] Moreover, the sensitivity of the six cancer cell lines toward compounds 2, 4, and 6 was markedly greater than that of THLE-3 cells.
All cell lines used in the study were human-derived and purchased from ATCC (Manassas, USA). Breast adenocarcinoma MCF-7 and MDA-MB-231 cell lines were cultured in DMEM. Hepatocellular carcinoma HepG2 and SNU423 cell lines were grown in MEME combined with 1% (v/v) nonessential amino acids and RPMI supplemented with 2 mM glutamine, respectively. Lung adenocarcinoma A549 and colorectal carcinoma HCT116 cells were grown in RPMI (+2 mM glutamine). […]
Screening of the antiproliferative activity of 3-arylisoquinolinones was performed using the SRB assay as previously described.[56] […] Finally, the cellular protein-bound SRB was thoroughly dissolved in 10 mM Tris base, and the OD values were read at 510 nm using a plate reader (μQuant Microplate Spectrophotometer, Biotek, U.K.) coupled with Gen5 software (BioTek, U.K.). […] Cell growth was calculated using the following formula: cell growth (%) = (ODtest/ODcontrol) × 100.

[9] = tested on: SNU423; experiment: SRB antiproliferative assay, SNU423; format: cell-based, human
Protocol: as §3, §1
as §2, with “After overnight incubation, the cells were treated with a range of concentrations of the respective compounds for 96 h, 24 h followed by 72 h compound-free incubation or 24 h (for HUVECs only).” left out

[10] = tested on: MDA-MB-231; experiment: SRB antiproliferative assay, MDA-MB-231; format: cell-based, human
Protocol: as §3, §1, §2

[11] = tested on: purified bovine tubulin; experiment: Cell-free tubulin polymerization assay; format: biochemical; conditions: 10 μM, compared to DMSO control
Text: Experimentally, the direct interaction of 4 with tubulin was investigated in a cell-free system using a tubulin polymerization assay. […] In control samples, α- and β-tubulin subunits were able to heterodimerize and assemble into microtubules in a time-dependent manner as indicated by increasing absorbance values over time. […] This indicates the incidence of fast polymerization associated with the formation of a denser microtubule mass. […] It is worth mentioning that microtubule dynamics can be potently altered by microtubule-stabilizing or -destabilizing compounds at doses 10- to 100-fold lower than those required for increasing or decreasing the microtubule polymer mass.[31]
The cell-free tubulin polymerization experiment was performed using the Tubulin Polymerization Assay Kit according to the manufacturer’s instructions (Millipore, Cat# 17-10194). The light absorbed by microtubules, which were formed upon tubulin polymerization, is directly proportional to the polymer mass. […] Immediately, the plate was placed in a 37 °C-prewarmed plate reader (BMG LABTECH FLUOstar Omega, Germany) and the absorbance was measured at 1 min intervals for 60 min at a wavelength of 350 nm. The delta absorbance (ΔA) was calculated by subtracting the absorbance values of zero time from those of the subsequent time points and then plotted versus time.

[12] = 96 h treatment, mean ± SEM, read-out: IC50 MCF-7 (prescreen)
[13] = 24 h +drug/72 h –drug treatment, read-out: mean IC50 ± SEM, HepG2
[14] = 96 h treatment, mean ± SEM, read-out: IC50 HepG2
[15] = 24 h +drug/72 h –drug treatment, read-out: mean IC50 ± SEM, HCT116
[16] = 96 h treatment, mean ± SEM, read-out: IC50 HCT116
[17] = 24 h +drug/72 h –drug treatment, read-out: mean IC50 ± SEM, MCF-7
[18] = 24 h +drug/72 h –drug treatment, read-out: mean IC50 ± SEM, A549
[19] = 96 h treatment, mean ± SEM, read-out: IC50 A549
[20] = 24 h +drug/72 h –drug treatment, read-out: mean IC50 ± SEM, SNU423
[21] = 96 h treatment, mean ± SEM, read-out: IC50 SNU423
[22] = 24 h +drug/72 h –drug treatment, read-out: mean IC50 ± SEM, MDA-MB-231
[23] = 96 h treatment, mean ± SEM, read-out: IC50 MDA-MB-231
[24] = Homo sapiens, MCF7, 96 h treatment, mean ± SEM, read-out: IC50 MCF-7 (prescreen)

Molecule: COc1cc2c(c(OC)c1OC)-c1ccc(OC)c(=O)cc1[C@@H](NC(C)=O)CC2 [colchicine]
reversibility of mitotic blockade [1]: irreversible

Molecule: COC(=O)Nc1nc2cc(C(=O)c3cccs3)ccc2[nH]1 [nocodazole]
reversibility of mitotic blockade [1]: highly reversible

IC50 [2, 12]: > 50000 nM
Molecule: 7-Fluoro-3-(4-methoxyphenyl)isoquinolin-1(2H)-one [compound 7]
inhibition of growth in NCI one-dose screen [3]: less active

IC50 [4, 13]: 2330 ± 220 nM
IC50 [4, 14]: 3120 ± 340 nM
IC50 [6, 15]: 200 ± 10 nM
IC50 [6, 16]: 220 ± 20 nM
IC50 [2, 17]: 1430 ± 300 nM
IC50 [2, 12]: 750 ± 130 nM
IC50 [7, 18]: 830 ± 170 nM
IC50 [7, 19]: 370 ± 10 nM
IC50 [9, 20]: 580 ± 40 nM
IC50 [9, 21]: 410 ± 30 nM
IC50 [10, 22]: 190 ± 40 nM
IC50 [10, 23]: 170 ± 10 nM
Molecule: COc1cccc(-c2cc3cc(F)ccc3c(=O)[nH]2)c1 [compound 2, 6-Fluoro-3-(3-methoxyphenyl)isoquinolin-1(2H)-one]
colony formation [5]: No colonies were apparent
IC50 [8]: > 25000 nM

IC50 [4, 13]: 1400 ± 60 nM
IC50 [4, 14]: 3030 ± 610 nM
IC50 [6, 15]: 210 ± 10 nM
IC50 [6, 16]: 190 ± 10 nM
IC50 [2, 17]: 1600 ± 400 nM
IC50 [2, 12]: 680 ± 130 nM
IC50 [7, 18]: 470 ± 30 nM
IC50 [7, 19]: 380 ± 20 nM
IC50 [9, 20]: 680 ± 90 nM
IC50 [9, 21]: 600 ± 60 nM
IC50 [10, 22]: 220 ± 20 nM
IC50 [10, 23]: 210 ± 50 nM
Molecule: COc1cccc(-c2cc3ccc(F)cc3c(=O)[nH]2)c1 [compound 6]
colony formation [5]: No colonies were apparent
IC50 [8]: > 25000 nM

Molecule: COc1ccc(-c2cc3cc(F)ccc3c(=O)[nH]2)cc1 [compound 3, 6-Fluoro-3-(4-methoxyphenyl)isoquinolin-1(2H)-one]
IC50 ([4]; Homo sapiens, HepG2, 96 h treatment, mean ± SEM, read-out: IC50 HepG2): > 50000 nM
surviving fraction ([5]; concentrations as high as 20 μM): 0.5
IC50 ([6]; Homo sapiens, HCT-116, 96 h treatment, mean ± SEM, read-out: IC50 HCT116): > 50000 nM
IC50 [2, 24]: > 50000 nM
IC50 ([7]; Homo sapiens, A549, 96 h treatment, mean ± SEM, read-out: IC50 A549): > 50000 nM
IC50 ([9]; Homo sapiens, SNU-423, 96 h treatment, mean ± SEM, read-out: IC50 SNU423): > 50000 nM
IC50 ([10]; Homo sapiens, MDA-MB-231, 96 h treatment, mean ± SEM, read-out: IC50 MDA-MB-231): > 50000 nM

Molecule: CC[C@]1(O)C[C@H]2CN(CCc3c([nH]c4ccccc34)[C@@](C(=O)OC)(c3cc4c(cc3OC)N(C=O)[C@H]3[C@@](O)(C(=O)OC)[C@H](OC(C)=O)[C@]5(CC)C=CCN6CC[C@]43[C@@H]65)C2)C1 [vincristine]
reversibility of mitotic blockade [1]: irreversible

melting point: 294 to 296 °C
IC50 [2, 24]: > 50000 nM
Molecule: O=c1[nH]c(-c2ccc(F)cc2)cc2ccc(F)cc12 [compound 8]

Molecule: CN[C@H]1CCc2cc(OC)c(OC)c(OC)c2-c2ccc(OC)c(=O)cc21 [colcemid]
reversibility of mitotic blockade [1]: highly reversible

Molecule: CC(=O)O[C@H]1C(=O)[C@@]2(C)[C@H]([C@H](OC(=O)c3ccccc3)[C@]3(O)C[C@H](OC(=O)[C@H](O)[C@@H](NC(=O)c4ccccc4)c4ccccc4)C(C)=C1C3(C)C)[C@]1(OC(C)=O)CO[C@@H]1C[C@@H]2O [paclitaxel, reference compound]
effect on tubulin polymerization (polymerizing control) [11]: higher absorbance values briefly after the onset of the polymerization process
